Data reported in ChEMBL document CHEMBL5724914, “Linking interpersonal differences in gut microbiota composition and drug biotransformation activity” (2024).

Legend:
[1] = (§1) The drug is tested on WLS-010 corresponding to human gut metagenome with ENA study accession number: PRJEB37062 and ENA sample accession number: ERS12561743 for biotransformation under anaerobic condition. The drug concentrations were measured over 9 timepoints collected between 0 and 24 hours of incubation by liquid-chromatography-coupled mass spectrometry (LC–MS); conditions: 2 µM
[2] = human gut metagenome, 24 h, 2 µM
[3] = as §1, with “WLS-170” for “WLS-010”, “ERS12561762” for “ERS12561743”; conditions: 2 µM
[4] = human gut metagenome, 24 h, 2 µM; remark: listed apart in the source
[5] = human gut metagenome, 24 h, 2 µM; remark: listed apart in the source
[6] = as §1, with “WLS-220” for “WLS-010”, “ERS12561769” for “ERS12561743”; conditions: 2 µM
[7] = human gut metagenome, 24 h, 2 µM; remark: listed apart in the source
[8] = as §1, with “WLS-240” for “WLS-010”, “ERS12561773” for “ERS12561743”; conditions: 2 µM
[9] = human gut metagenome, 24 h, 2 µM; remark: listed apart in the source
[10] = as §1, with “WLS-098” for “WLS-010”, “ERS12561754” for “ERS12561743”; conditions: 2 µM
[11] = human gut metagenome, 24 h, 2 µM; remark: listed apart in the source
[12] = as §1, with “WLS-310” for “WLS-010”, “ERS12561785” for “ERS12561743”; conditions: 2 µM
[13] = as §1, with “WLS-006” for “WLS-010”, “ERS12561741” for “ERS12561743”; conditions: 2 µM
[14] = as §1, with “WLS-039” for “WLS-010”, “ERS12561746” for “ERS12561743”; conditions: 2 µM
[15] = human gut metagenome, 24 h, 2 µM; remark: listed apart in the source
[16] = human gut metagenome, 24 h, 2 µM; remark: listed apart in the source
[17] = human gut metagenome, 24 h, 2 µM; remark: listed apart in the source
[18] = human gut metagenome, 24 h, 2 µM; remark: listed apart in the source
[19] = as §1, with “Z-002” for “WLS-010”, “rabbit” for “human”, “ERS12561802” for “ERS12561743”; conditions: 2 µM
[20] = as §1, with “Z-009” for “WLS-010”, “pig” for “human”, “ERS12561809” for “ERS12561743”; conditions: 2 µM
Also: call rule not given here.

SMILES	Bacterial Biotransformation [1]	Bacterial Biotransformation [2]	Bacterial Biotransformation [3]	Bacterial Biotransformation [4]	Bacterial Biotransformation [5]	Bacterial Biotransformation [6]	Bacterial Biotransformation [7]	Bacterial Biotransformation [8]	Bacterial Biotransformation [9]	Bacterial Biotransformation [10]	Bacterial Biotransformation [11]	Bacterial Biotransformation [12]	Bacterial Biotransformation [13]	Bacterial Biotransformation [14]	Bacterial Biotransformation [15]	Bacterial Biotransformation [16]	Bacterial Biotransformation [17]	Bacterial Biotransformation [18]	Bacterial Biotransformation [19]	Bacterial Biotransformation [20]
N#Cc1ccc2c(c1)N(CCCN1CCC(O)CC1)c1ccccc1S2 [PERICIAZINE]	Compound NOT metabolized	Compound metabolized	Compound metabolized	Compound metabolized	Compound NOT metabolized	Compound metabolized	Compound metabolized	Compound metabolized	Compound NOT metabolized	Compound metabolized	Compound NOT metabolized	Compound metabolized	Compound NOT metabolized	Compound NOT metabolized	Compound NOT metabolized	Compound metabolized	Compound metabolized	Compound metabolized		
N[C@@H](Cc1ccc(N(CCCl)CCCl)cc1)C(=O)O	Compound metabolized		Compound metabolized	Compound NOT metabolized	Compound NOT metabolized	Compound metabolized		Compound NOT metabolized	Compound metabolized	Compound metabolized	Compound metabolized		Compound metabolized	Compound metabolized	Compound metabolized	Compound NOT metabolized			Compound metabolized	
COCCCC/C(=N\OCCN)c1ccc(C(F)(F)F)cc1.O=C(O)/C=C\C(=O)O [FLUVOXAMINE MALEATE]	Compound NOT metabolized	Compound NOT metabolized	Compound NOT metabolized	Compound metabolized	Compound NOT metabolized	Compound metabolized	Compound NOT metabolized	Compound NOT metabolized	Compound NOT metabolized	Compound NOT metabolized	Compound NOT metabolized	Compound metabolized	Compound metabolized	Compound NOT metabolized	Compound NOT metabolized	Compound NOT metabolized	Compound NOT metabolized	Compound NOT metabolized		
CCOC(=O)C1=C(C)NC(C)=C(C(=O)OC)C1c1cccc([N+](=O)[O-])c1 (centres undefined) [NITRENDIPINE]	Compound metabolized	Compound metabolized	Compound metabolized	Compound metabolized	Compound metabolized	Compound metabolized	Compound metabolized	Compound metabolized		Compound metabolized	Compound metabolized	Compound metabolized	Compound metabolized	Compound metabolized	Compound metabolized	Compound metabolized	Compound NOT metabolized	Compound metabolized		
CC#CCn1c(N2CCC[C@@H](N)C2)nc2c1c(=O)n(Cc1nc(C)c3ccccc3n1)c(=O)n2C [LINAGLIPTIN]	Compound NOT metabolized	Compound NOT metabolized	Compound NOT metabolized	Compound NOT metabolized	Compound NOT metabolized	Compound NOT metabolized	Compound NOT metabolized	Compound NOT metabolized	Compound NOT metabolized	Compound NOT metabolized		Compound NOT metabolized		Compound metabolized	Compound metabolized	Compound NOT metabolized	Compound NOT metabolized	Compound NOT metabolized		
CN(C)CCc1c[nH]c2ccc(CS(=O)(=O)N3CCCC3)cc12 [ALMOTRIPTAN]	Compound NOT metabolized	Compound metabolized	Compound metabolized	Compound NOT metabolized	Compound NOT metabolized	Compound NOT metabolized	Compound NOT metabolized	Compound metabolized	Compound NOT metabolized	Compound metabolized	Compound NOT metabolized	Compound metabolized	Compound NOT metabolized	Compound NOT metabolized	Compound NOT metabolized	Compound NOT metabolized	Compound NOT metabolized	Compound NOT metabolized		
CN(C/C=C/C#CC(C)(C)C)Cc1cccc2ccccc12 [TERBINAFINE]		Compound NOT metabolized	Compound metabolized	Compound NOT metabolized	Compound NOT metabolized	Compound NOT metabolized	Compound NOT metabolized	Compound NOT metabolized	Compound NOT metabolized	Compound NOT metabolized	Compound NOT metabolized	Compound metabolized			Compound NOT metabolized	Compound metabolized	Compound NOT metabolized	Compound NOT metabolized	Compound NOT metabolized	Compound metabolized
CNCC[C@H](Oc1cccc2ccccc12)c1cccs1 [DULOXETINE]	Compound NOT metabolized	Compound NOT metabolized	Compound metabolized	Compound NOT metabolized	Compound NOT metabolized	Compound NOT metabolized	Compound NOT metabolized	Compound NOT metabolized	Compound NOT metabolized	Compound metabolized	Compound NOT metabolized	Compound metabolized	Compound metabolized	Compound NOT metabolized	Compound NOT metabolized	Compound metabolized	Compound NOT metabolized	Compound NOT metabolized		
CNNCc1ccc(C(=O)NC(C)C)cc1 [PROCARBAZINE]		Compound metabolized	Compound metabolized	Compound NOT metabolized	Compound metabolized		Compound metabolized	Compound metabolized	Compound NOT metabolized	Compound metabolized	Compound metabolized	Compound metabolized		Compound NOT metabolized	Compound NOT metabolized	Compound metabolized	Compound NOT metabolized	Compound NOT metabolized		
O=C([O-])C[C@H](O)C[C@H](O)/C=C/c1c(C2CC2)nc2ccccc2c1-c1ccc(F)cc1.O=C([O-])C[C@H](O)C[C@H](O)/C=C/c1c(C2CC2)nc2ccccc2c1-c1ccc(F)cc1.[Ca+2] [PITAVASTATIN CALCIUM]	Compound metabolized	Compound metabolized	Compound NOT metabolized	Compound metabolized	Compound NOT metabolized	Compound metabolized	Compound metabolized	Compound metabolized	Compound NOT metabolized	Compound metabolized	Compound metabolized	Compound metabolized	Compound metabolized	Compound metabolized	Compound metabolized	Compound NOT metabolized	Compound metabolized	Compound metabolized		
